# Data from publication PMC10461232, “Structure-Based Design of Transport-Specific Multitargeted One-Carbon Metabolism Inhibitors in Cytosol and Mitochondria” (Journal of Medicinal Chemistry, 2023).
# Where two headings read alike, the source gives them in different places.
# Tests used:
# [1] = test system: R2 (MTXRIIOuaR2-4) CHO cells; experiment: Growth inhibition, transporter-null R2 CHO cells; assay type: cell-based, Chinese hamster; conditions: Cricetulus griseus, 96 h, read-out: IC50 R2
# HPNE (RFC) cells = experiment: Proliferation inhibition, HPNE normal pancreatic epithelial cells; assay type: cell-based; conditions: Homo sapiens, folate- and glycine-free RPMI, 25 nM leucovorin
# Excerpt: (§1) The RFC-, PCFT-, and FR-null MTXRIIOua^R2–4 (R2), and RFC- (PC43-10), PCFT- (R2/PCFT4), FRα- (RT16), and FRβ- (D4) expressing CHO sublines were previously described.[62]−[64],[76] HPAC pancreatic cancer cells were generously provided by Dr. Yubin Ge (Karmanos Cancer Institute, Detroit, MI). Human pancreatic normal epithelial (HPNE) cells[67] were a gift from M. Oulette (University of Nebraska Medical Center, Omaha, NE). KB human nasopharyngeal carcinoma cells were purchased from the American Type Culture Collection (Manassas, VA). All human cell lines were validated by STR analysis by Genetica DNA Laboratories (Burlington, NC). Cell lines were tested for Mycoplasma by PCR using a Mycloplasma testing kit (Venor GeM Mycoplasma Detection Kit, Sigma). Frozen stocks were generated from authenticated Mycoplasma-free cultures.
# PC43-10 (RFC) CHO cells = experiment: Growth inhibition, PC43-10 CHO cells expressing human RFC; assay type: cell-based, Chinese hamster; conditions: Cricetulus griseus, 96 h, read-out: IC50 PC43-10 (RFC)
# [2] = test system: R2/PCFT4 (PCFT) CHO cells; experiment: Growth inhibition, R2/PCFT4 CHO cells expressing human PCFT; assay type: cell-based, Chinese hamster; conditions: Cricetulus griseus, 96 h, read-out: IC50 R2/PCFT4 (PCFT)
# KB (RFC/PCFT/FRα) cells = experiment: Growth inhibition, KB nasopharyngeal carcinoma cells; assay type: cell-based, human; conditions: Homo sapiens, KB, folate-free RPMI 1640, 2 nM leucovorin, mean (SE)
# Description: The CHO cells were cultured in α-minimal essential medium (MEM) supplemented with 10% bovine calf serum (Fisher Scientific), penicillin (1000 U/mL)/streptomycin (1000 μg/mL), and 2 mM L-glutamine at 37 °C with 5% CO2. All of the R2 transfected cells (PC43-10, RT16, R2/PCFT4) were cultured in complete α-MEM media plus 1 mg/mL G418. Prior to the cytotoxicity assays (see below), RT16 and D4 cells were cultured for 3 days in complete folate-free RPMI 1640 (without added folate), and R2/PCFT4 and R2 cells were cultured in complete folate-free RPMI 1640 supplemented with dialyzed fetal bovine serum (Fisher Scientific) and 25 nM leucovorin plus 1 mg/mL G418. KB cells were routinely cultured in folate-free RPMI 1640 medium, supplemented with 10% fetal bovine serum (Fisher Scientific), penicillin-streptomycin solution, and 2 mM L-glutamine at 37 °C with 5% CO2.
# For growth inhibition studies, cells (CHO, KB) were plated in 96-well dishes (∼2500–5000 cells/well, total volume of 200 μL medium) over a range of antifolate concentrations.[69],[77] The medium was folate-free RPMI 1640 with 10% dialyzed serum and antibiotics supplemented with 25 nM leucovorin for experiments with R2, PC43-10, and R2/PCFT4 cells. For experiments with RT16, D4, and KB cells, cells were cultured in folate-free RPMI medium with 10% dialyzed fetal bovine serum and antibiotics; the medium was supplemented with 2 nM leucovorin. […] Incubations were routinely for up to 96 h. Viable cells (reflecting cell viability) were assayed with Cell Titer Blue reagent (Promega, Madison, WI), with fluorescence measured (590 nm emission, 560 nm excitation) with a fluorescence plate reader.
# HPAC (RFC/PCFT) cells = experiment: Proliferation inhibition, HPAC pancreatic adenocarcinoma cells; assay type: cell-based, human; conditions: for IC50: HPAC cells, folate- and glycine-free RPMI, 25 nM leucovorin, mean (SE)
# Excerpt: as §1
# D4 (FRβ) CHO cells = experiment: Growth inhibition, D4 CHO cells expressing human FRβ; assay type: cell-based, Chinese hamster; conditions: for IC50: Cricetulus griseus, CHO, 96 h, mean (SE); for difference between D4 (FRβ) and RT16 (FRα) IC50: RT16 versus D4 CHO cells
# RT16 (FRα) CHO cells = experiment: Growth inhibition, RT16 CHO cells expressing human FRα; assay type: cell-based, Chinese hamster; conditions: 96 h, mean (SE)
# [3] = read-out: IC50 D4 (FRβ), CHO cells expressing human FRβ, 96 h, 2 nM leucovorin
# [4] = Cricetulus griseus, read-out: IC50 RT16 (FRα), CHO cells expressing human FRα, 96 h, 2 nM leucovorin
# [5] = transporter-null CHO cells, 25 nM leucovorin, mean (SE)
# [6] = CHO cells expressing human RFC, 25 nM leucovorin, mean (SE)
# [7] = CHO cells expressing human PCFT, 25 nM leucovorin, mean (SE)
# [8] = CHO cells expressing human FRβ, 2 nM leucovorin, read-out: IC50 D4 (FRβ)
# [9] = Cricetulus griseus, CHO cells expressing human FRα, 2 nM leucovorin, read-out: IC50 RT16 (FRα)
SMILES,IC50 (KB (RFC/PCFT/FRα) cells),"IC50 (HPAC (RFC/PCFT) cells; Homo sapiens, HPAC)",IC50 HPAC (RFC/PCFT) (HPAC (RFC/PCFT) cells),IC50 ([1]; CHO),IC50 (HPNE (RFC) cells),IC50 (PC43-10 (RFC) CHO cells),IC50 [2],IC50 (HPAC (RFC/PCFT) cells),IC50 (D4 (FRβ) CHO cells; [3]),IC50 (RT16 (FRα) CHO cells; [4]),"IC50 [1, 5]",IC50 (PC43-10 (RFC) CHO cells; [6]),"IC50 [2, 7]",IC50 (D4 (FRβ) CHO cells; [8]),difference between D4 (FRβ) and RT16 (FRα) IC50 (D4 (FRβ) CHO cells),IC50 (RT16 (FRα) CHO cells; [9]),"IC50 (RT16 (FRα) CHO cells; CHO cells expressing human FRα, 2 nM leucovorin, read-out: IC50 RT16 (FRα))"
Nc1nc2ccn(CCCCCc3ccc(C(=O)N[C@@H](CCC(=O)O)C(=O)O)s3)c2c(=O)[nH]1 [Compound 3],7.47 nM,746 nM,–,> 1000 nM,> 5000 nM,> 1000 nM,> 1000 nM,746 nM,7.89 nM,14.6 nM,–,–,–,–,–,–,–
Nc1nc2ccn(CCCc3ccc(C(=O)N[C@@H](CCC(=O)O)C(=O)O)s3)c2c(=O)[nH]1 [Compound 4],23.7 nM,2990 nM,–,–,> 5000 nM,–,–,–,–,–,> 1000 nM,> 1000 nM,497 nM,1.94 nM,20- to 40 fold,33 nM,–
"Nc1nc2ccn(CCOc3ccc(C(=O)N[C@@H](CCC(=O)O)C(=O)O)cc3)c2c(=O)[nH]1 [Compound 6, (4-(3-(2-Amino-4-oxo-3,4-dihydro-5H-pyrrolo[3,2-d]pyrimidin-5-yl)ethoxy)benzoyl)-L-glutamic Acid]",11.2 nM,4620 nM,–,–,> 5000 nM,–,–,–,–,–,> 1000 nM,> 1000 nM,431 nM,1.62 nM,20- to 40 fold,67.7 nM,–
"Nc1nc2ccn(CCCCCc3ccc(C(=O)N[C@@H](CCC(=O)O)C(=O)O)c(F)c3)c2c(=O)[nH]1 [Compound 11, (4-(5-(2-Amino-4-oxo-3,4-dihydro-5H-pyrrolo[3,2-d]pyrimidin-5-yl)pentyl)-2-fluorobenzoyl)-L-glutamic Acid]",6.25 nM,1230 nM,–,> 1000 nM,> 5000 nM,> 1000 nM,> 1000 nM,–,6.95 nM,26.8 nM,–,–,–,–,–,–,–
"Nc1nc2ccn(CCCCc3cc(F)c(C(=O)N[C@@H](CCC(=O)O)C(=O)O)c(F)c3)c2c(=O)[nH]1 [Compound 12, (4-(4-(2-Amino-4-oxo-3,4-dihydro-5H-pyrrolo[3,2-d]pyrimidin-5-yl)butyl)-2,6-difluorobenzoyl)-L-glutamic Acid]",9.26 nM,> 5000 nM,–,–,> 5000 nM,–,–,–,–,–,> 1000 nM,> 1000 nM,> 1000 nM,7.5 nM,–,2.55 nM,–
"Nc1nc2ccn(CCCc3ccc(C(=O)N[C@@H](CCC(=O)O)C(=O)O)c(F)c3)c2c(=O)[nH]1 [Compound 13, (4-(3-(2-Amino-4-oxo-3,4-dihydro-5H-pyrrolo[3,2-d]pyrimidin-5-yl)propyl)-2-fluorobenzoyl)-L-glutamic Acid]",8.34 nM,166 nM,2600 to 4600 nM,–,> 5000 nM,–,–,–,–,–,> 1000 nM,233 nM,98 nM,0.63 nM,20- to 40 fold,16.3 nM,–

# Second part, led by results:
IC50 (KB (RFC/PCFT/FRα) cells),"IC50 (HPAC (RFC/PCFT) cells; Homo sapiens, HPAC)",IC50 HPAC (RFC/PCFT) (HPAC (RFC/PCFT) cells),SMILES,IC50 ([1]; CHO),IC50 (HPNE (RFC) cells),IC50 (PC43-10 (RFC) CHO cells),IC50 [2],IC50 (HPAC (RFC/PCFT) cells),IC50 (D4 (FRβ) CHO cells; [3]),IC50 (RT16 (FRα) CHO cells; [4]),"IC50 [1, 5]",IC50 (PC43-10 (RFC) CHO cells; [6]),"IC50 [2, 7]",IC50 (D4 (FRβ) CHO cells; [8]),difference between D4 (FRβ) and RT16 (FRα) IC50 (D4 (FRβ) CHO cells),IC50 (RT16 (FRα) CHO cells; [9]),"IC50 (RT16 (FRα) CHO cells; CHO cells expressing human FRα, 2 nM leucovorin, read-out: IC50 RT16 (FRα))"
8.23 nM,1200 to 1600 nM,–,"Nc1nc2ccn(CCCOc3ccc(C(=O)N[C@@H](CCC(=O)O)C(=O)O)cc3)c2c(=O)[nH]1 [Compound 5, (4-(3-(2-Amino-4-oxo-3,4-dihydro-5H-pyrrolo[3,2-d]pyrimidin-5-yl)propoxy)benzoyl)-L-glutamic Acid]",–,> 5000 nM,–,–,1670 nM,–,–,> 1000 nM,> 1000 nM,> 1000 nM,0.45 nM,20- to 40 fold,18.7 nM,–
6.17 nM,> 5000 nM,–,"Nc1nc2ccn(CCCNc3ccc(C(=O)N[C@@H](CCC(=O)O)C(=O)O)cc3)c2c(=O)[nH]1 [Compound 8, (4-((3-(2-Amino-4-oxo-3,4-dihydro-5H-pyrrolo[3,2-d]pyrimidin-5-yl)propyl)amino)benzoyl)-L-glutamic Acid]",–,> 5000 nM,–,–,–,–,–,> 1000 nM,> 1000 nM,> 1000 nM,–,–,6.88 nM,–
6.3 nM,1620 nM,–,Nc1nc2ccn(CCCCCc3ccc(C(=O)N[C@@H](CCC(=O)O)C(=O)O)cc3)c2c(=O)[nH]1 [Compound 9],–,> 5000 nM,–,–,–,–,–,> 1000 nM,> 1000 nM,> 1000 nM,6.33 nM,–,13.5 nM,–
6.81 nM,2590 nM,–,Nc1nc2ccn(CCCCc3ccc(C(=O)N[C@@H](CCC(=O)O)C(=O)O)cc3)c2c(=O)[nH]1 [Compound 15],–,> 5000 nM,–,–,–,–,–,> 1000 nM,> 1000 nM,> 1000 nM,–,–,< 3 nM,1.64 nM
